Results from patent publication US11866451B2, “Salts and crystalline forms of a PD-1/PD-L1 inhibitor” (Incyte Corporation, priority 2019, dated 2024).
Blank lines part the entries; values can stand above or below the compound they belong to.

Legend:
Assay type in all cases: physicochemical
[1] = Solubility measurement in various solvents at 25° C. (Procedure 1); conditions: thermodynamic from solid
Description: (§1) The solubility of Compound 1 Di-Hydrochloric Acid Salt Form I was measured according to Procedure 1 for solubility in 25° C. (Table 5) and Procedure 2 for 50° C. [table] [table]

[2] = Solubility measurement in various solvents at 50° C. (Procedure 2)
Description: as §1

[3] = Competitive slurry experiments, stability relationship of polymorphs in 10% water/acetone
Description: To evaluate the transformation of Compound 1 Di-Hydrochloric Acid Salt solid forms, competitive slurry experiments at 25±1° C. and 60±1° C. in the solvent of 10% water/acetone were performed with a mixture of eight polymorphs (Form I, and Form III through Form IX) as described in Table 23 and Table 24. [table] [table]

[4] = 2% water in acetone, organic solvent or mixture
[5] = 2% water in acetonitrile, organic solvent or mixture
[6] = 2-methoxyethanol, organic solvent or mixture
[7] = 5% water in acetone, organic solvent or mixture
[8] = 5% water in acetonitrile, organic solvent or mixture
[9] = 10% water in acetone, organic solvent or mixture
[10] = 10% water in acetonitrile, organic solvent or mixture
[11] = DMF, organic solvent or mixture
[12] = DMSO, organic solvent or mixture
[13] = EtOH, organic solvent or mixture
[14] = IPA, organic solvent or mixture
[15] = MeCN, organic solvent or mixture
[16] = acetone, organic solvent or mixture
[17] = chloroform, organic solvent or mixture

- solubility [1, 4]: 50 µg/mL
- solubility [1, 5]: 10 µg/mL
- solubility [1, 6]: 16900 µg/mL
- solubility [1, 7]: 320 µg/mL
- solubility [1, 8]: 1040 µg/mL
- solubility [1, 9]: 2300 µg/mL
- solubility [1, 10]: 3640 µg/mL
- solubility [1, 11]: 2980 µg/mL
- solubility [1, 12]: > 50000 µg/mL
- solubility [1, 13]: 390 µg/mL
- solubility [1, 14]: 650 µg/mL
- solubility ([1]; IPAc, organic solvent or mixture): 10 µg/mL
- solubility [1, 15]: 20 µg/mL
- solubility ([1]; THF, organic solvent or mixture): 50 µg/mL
- solubility [1, 16]: 10 µg/mL
- solubility [1, 17]: > 50000 µg/mL
- solubility ([1]; organic solvent or mixture, 1-Propanol, solid phase Form V): 710 µg/mL
- solubility ([1]; organic solvent or mixture, Methanol, solid phase Form III): 18800 µg/mL
- solubility ([1]; organic solvent or mixture, n-BuOH, solid phase Form IV): 460 µg/mL
- solubility ([1]; Water, solid phase Form VI): 12900 µg/mL
- solubility ([2]; 1,4-dioxane, organic solvent or mixture): 10 µg/mL
- solubility ([2]; 1-propanol, organic solvent or mixture): 1120 µg/mL
- solubility [2, 4]: 110 µg/mL
- solubility [2, 5]: 10 µg/mL
- solubility [2, 6]: 28300 µg/mL
- solubility [2, 7]: 560 µg/mL
- solubility [2, 8]: 1210 µg/mL
- solubility [2, 9]: 5710 µg/mL
- solubility [2, 10]: 6610 µg/mL
- solubility [2, 11]: 5480 µg/mL
- solubility [2, 12]: > 50000 µg/mL
- solubility [2, 13]: 1100 µg/mL
- solubility [2, 14]: 980 µg/mL
- solubility ([2]; MEK, organic solvent or mixture): 150 µg/mL
- solubility ([2]; MIBK, organic solvent or mixture): 10 µg/mL
- solubility [2, 15]: 10 µg/mL
- solubility ([2]; THF, organic solvent or mixture, thermodynamic from solid): 40 µg/mL
- solubility [2, 16]: 10 µg/mL
- solubility [2, 17]: > 50000 µg/mL
- solubility ([2]; methanol, organic solvent or mixture, thermodynamic from solid): 22100 µg/mL
- solubility ([2]; organic solvent or mixture, thermodynamic from solid, n-BuOH, solid phase Form IV): 420 µg/mL
- solubility ([2]; thermodynamic from solid, Water, solid phase Form VI): 14800 µg/mL
- Relative stability of polymorphic forms ([3]; 10% water/acetone at 25 and 60° C., competitive slurry): most stable polymorphic form
SMILES: Cl.Cl.Cn1c(C(=O)Nc2cccc(-c3cccc(NC(=O)c4nc5c(n4C)CCN(CCC46CCC(C(=O)O)(CC4)C6)C5)c3Cl)c2Cl)nc2c1CCN(CCC13CCC(C(=O)O)(CC1)C3)C2 [4,4′-(((((2,2′-dichloro-[1,1′-biphenyl]-3,3′-diyl)bis(azanediyl))bis(carbonyl))bis(1-methyl-1,4,6,7-tetrahydro-5H-imidazo[4,5-c]pyridine-2,5-diyl))bis(ethane-2,1-diyl))bis(bicyclo[2.2.1]heptane-1-carboxylic acid) di-hydrochloric acid salt]

- Polymorph transformation in competitive slurry (XRPD) ([3]; mixture of polymorphs stirred in 10% water/acetone at 25±° C. for 20 hours and at 60±° C. for 2 h): converted to Form I
SMILES: Cl.Cl.Cn1c(C(=O)Nc2cccc(-c3cccc(NC(=O)c4nc5c(n4C)CCN(CCC46CCC(C(=O)O)(CC4)C6)C5)c3Cl)c2Cl)nc2c1CCN(CCC13CCC(C(=O)O)(CC1)C3)C2 [Form III, 4,4′-(((((2,2′-dichloro-[1,1′-biphenyl]-3,3′-diyl)bis(azanediyl))bis(carbonyl))bis(1-methyl-1,4,6,7-tetrahydro-5H-imidazo[4,5-c]pyridine-2,5-diyl))bis(ethane-2,1-diyl))bis(bicyclo[2.2.1]heptane-1-carboxylic acid) di-hydrochloric acid salt]
